Experimental data published in PubChem BioAssay (NCI).
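Exposure lasted 48 hours, with cells grown in 96-well plates and compounds tested at five concentrations. At the GI50, growth is halved. TGI: total growth inhibition.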

Assays:
Test in all cases: NCI anticancer screen, dose series, 48 h
SF-539 CNS = system: SF-539 CNS
DU-145 prostate = system: DU-145 prostate
HS 578T breast = system: HS 578T breast
A498 renal = system: A498 renal
SW-620 colon = system: SW-620 colon
TK-10 renal = system: TK-10 renal
PC-3 prostate = system: PC-3 prostate
MDA-MB-231 breast = system: MDA-MB-231 breast
UACC-257 melanoma = system: UACC-257 melanoma
U251 CNS = system: U251 CNS
MOLT-4 leukemia = system: MOLT-4 leukemia
MALME-3M melanoma = system: MALME-3M melanoma
IGROV1 ovarian = system: IGROV1 ovarian
NCI/ADR-RES ovarian = system: NCI/ADR-RES ovarian
SK-OV-3 ovarian = system: SK-OV-3 ovarian
OVCAR-5 ovarian = system: OVCAR-5 ovarian
SK-MEL-28 melanoma = system: SK-MEL-28 melanoma
SF-268 CNS = system: SF-268 CNS
BT-549 breast = system: BT-549 breast
HCT-15 colon = system: HCT-15 colon
T-47D breast = system: T-47D breast
MCF7 breast = system: MCF7 breast
HT29 colon = system: HT29 colon
EKVX NSCLC = system: EKVX NSCLC
RXF 393 renal = system: RXF 393 renal
786-0 renal = system: 786-0 renal
UACC-62 melanoma = system: UACC-62 melanoma
NCI-H23 lung = system: NCI-H23 lung
CCRF-CEM leukemia = system: CCRF-CEM leukemia
K-562 leukemia = system: K-562 leukemia
HOP-62 NSCLC = system: HOP-62 NSCLC
COLO 205 colon = system: COLO 205 colon
SK-MEL-5 melanoma = system: SK-MEL-5 melanoma
A549 NSCLC = system: A549 NSCLC
MDA-MB-435 = system: MDA-MB-435
OVCAR-8 ovarian = system: OVCAR-8 ovarian
SF-295 CNS = system: SF-295 CNS
HCC-2998 colon = system: HCC-2998 colon
SNB-75 CNS = system: SNB-75 CNS
HL-60(TB) leukemia = system: HL-60(TB) leukemia
KM12 colon = system: KM12 colon
OVCAR-3 ovarian = system: OVCAR-3 ovarian
NCI-H226 lung = system: NCI-H226 lung
ACHN renal = system: ACHN renal
HOP-92 NSCLC = system: HOP-92 NSCLC
NCI-H522 lung = system: NCI-H522 lung
M14 melanoma = system: M14 melanoma
SK-MEL-2 melanoma = system: SK-MEL-2 melanoma
CAKI-1 renal = system: CAKI-1 renal
NCI-H460 lung = system: NCI-H460 lung
SN12C renal = system: SN12C renal
UO-31 renal = system: UO-31 renal
SNB-19 CNS = system: SNB-19 CNS
HCT-116 colon = system: HCT-116 colon

`COC(=O)c1ccc(NC2=C/C(=N/S(=O)(=O)c3ccc(C(=O)O)cc3)c3ccccc3C2=O)cc1` showed a GI50 (SF-539 CNS) of 1.79 µM, a TGI (SF-539 CNS) of 3.38 µM and a GI50 (DU-145 prostate) of 11.7 µM. The TGI (DU-145 prostate) was 24.7 µM, the GI50 (HS 578T breast) was 3.36 µM and the TGI (HS 578T breast) was 48 µM. The GI50 (A498 renal) was 22.9 µM, the TGI (A498 renal) was 42.4 µM and the GI50 (SW-620 colon) was 2.78 µM. The TGI (SW-620 colon) was > 100 µM, the GI50 (TK-10 renal) was 25.2 µM and the TGI (TK-10 renal) was 42.8 µM. It also gave a GI50 (PC-3 prostate) of 3.4 µM, a TGI (PC-3 prostate) of 25.3 µM and a GI50 (MDA-MB-231 breast) of 2.51 µM. It also gave a TGI (MDA-MB-231 breast) of 8.1 µM, a GI50 (UACC-257 melanoma) of 2.06 µM and a TGI (UACC-257 melanoma) of 4.6 µM. It also gave a GI50 (U251 CNS) of 4.01 µM, a TGI (U251 CNS) of 28.8 µM and a GI50 (MOLT-4 leukemia) of 1.74 µM. For the same compound, the TGI (MOLT-4 leukemia) was 4.47 µM, the GI50 (MALME-3M melanoma) was 1.89 µM and the TGI (MALME-3M melanoma) was 3.52 µM. The GI50 (IGROV1 ovarian) was 4.92 µM, the TGI (IGROV1 ovarian) was 20.8 µM and the GI50 (NCI/ADR-RES ovarian) was 3.06 µM. For the same compound, the TGI (NCI/ADR-RES ovarian) was 11.8 µM, the GI50 (SK-OV-3 ovarian) was 21 µM and the TGI (SK-OV-3 ovarian) was 44.5 µM. For the same compound, the GI50 (OVCAR-5 ovarian) was 14 µM, the TGI (OVCAR-5 ovarian) was 33.4 µM and the GI50 (SK-MEL-28 melanoma) was 2.46 µM. For the same compound, the TGI (SK-MEL-28 melanoma) was 5.89 µM, the GI50 (SF-268 CNS) was 6.33 µM and the TGI (SF-268 CNS) was 37.5 µM. It also gave a GI50 (BT-549 breast) of 15 µM, a TGI (BT-549 breast) of 32.6 µM and a GI50 (HCT-15 colon) of 11 µM. It also gave a TGI (HCT-15 colon) of 35.5 µM, a GI50 (T-47D breast) of 3.19 µM and a TGI (T-47D breast) of 26.8 µM. It also gave a GI50 (MCF7 breast) of 1.89 µM, a TGI (MCF7 breast) of 4.4 µM and a GI50 (HT29 colon) of 21.3 µM. The TGI (HT29 colon) was 47.4 µM, the GI50 (EKVX NSCLC) was 2.1 µM and the TGI (EKVX NSCLC) was 5.83 µM. It also gave a GI50 (RXF 393 renal) of 8.1 µM, a TGI (RXF 393 renal) of 22.4 µM and a GI50 (786-0 renal) of 10.9 µM. The TGI (786-0 renal) was 58.4 µM, the GI50 (UACC-62 melanoma) was 2.08 µM and the TGI (UACC-62 melanoma) was 4.55 µM. The GI50 (NCI-H23 lung) was 3.18 µM, the TGI (NCI-H23 lung) was 18.2 µM and the GI50 (CCRF-CEM leukemia) was 3.21 µM. For the same compound, the TGI (CCRF-CEM leukemia) was > 100 µM, the GI50 (K-562 leukemia) was 3.19 µM and the TGI (K-562 leukemia) was > 100 µM. The GI50 (HOP-62 NSCLC) was 17.3 µM, the TGI (HOP-62 NSCLC) was 38.3 µM and the GI50 (COLO 205 colon) was 17.7 µM. The TGI (COLO 205 colon) was 38.1 µM, the GI50 (SK-MEL-5 melanoma) was 3.18 µM and the TGI (SK-MEL-5 melanoma) was 10.1 µM. The GI50 (A549 NSCLC) was 29.8 µM, the TGI (A549 NSCLC) was > 100 µM and the GI50 (MDA-MB-435) was 1.95 µM. It also gave a TGI (MDA-MB-435) of 3.67 µM, a GI50 (OVCAR-8 ovarian) of 3.2 µM and a TGI (OVCAR-8 ovarian) of 46.2 µM. For the same compound, the GI50 (SF-295 CNS) was 11.7 µM, the TGI (SF-295 CNS) was 26.9 µM and the GI50 (HCC-2998 colon) was 10.4 µM. For the same compound, the TGI (HCC-2998 colon) was 27 µM, the GI50 (SNB-75 CNS) was 2.1 µM and the TGI (SNB-75 CNS) was 10.1 µM. It also gave a GI50 (HL-60(TB) leukemia) of 2.55 µM, a TGI (HL-60(TB) leukemia) of 6.52 µM and a GI50 (KM12 colon) of 10.7 µM. The TGI (KM12 colon) was 25.3 µM, the GI50 (OVCAR-3 ovarian) was 2.17 µM and the TGI (OVCAR-3 ovarian) was 5.94 µM. The GI50 (NCI-H226 lung) was 15.2 µM, the TGI (NCI-H226 lung) was 34.6 µM and the GI50 (ACHN renal) was 1.88 µM. The TGI (ACHN renal) was 4.19 µM, the GI50 (HOP-92 NSCLC) was 3.71 µM and the TGI (HOP-92 NSCLC) was 15.6 µM. For the same compound, the GI50 (NCI-H522 lung) was 1.92 µM, the TGI (NCI-H522 lung) was 4.76 µM and the GI50 (M14 melanoma) was 5.7 µM. It also gave a TGI (M14 melanoma) of 23.9 µM, a GI50 (SK-MEL-2 melanoma) of 2.35 µM and a TGI (SK-MEL-2 melanoma) of 6.51 µM. For the same compound, the GI50 (CAKI-1 renal) was 10 µM, the TGI (CAKI-1 renal) was 23.1 µM and the GI50 (NCI-H460 lung) was 20.6 µM. It also gave a TGI (NCI-H460 lung) of 50.8 µM, a GI50 (SN12C renal) of 2.13 µM and a TGI (SN12C renal) of 5.15 µM. It also gave a GI50 (UO-31 renal) of 2.94 µM, a TGI (UO-31 renal) of 15.3 µM and a GI50 (SNB-19 CNS) of 16.9 µM. For the same compound, the TGI (SNB-19 CNS) was 33.2 µM, the GI50 (HCT-116 colon) was 2.81 µM and the TGI (HCT-116 colon) was 10.2 µM.
